Laboratory results from publication PMC9090415, “Discovery of small molecule inhibitors of Plasmodium falciparum apicoplast DNA polymerase” (Journal of Enzyme Inhibition and Medicinal Chemistry, 2022).

Biological target: P. falciparum apicoplast DNA polymerase (Pf-apPOL) (Plasmodium falciparum, UniProt Q8ILY1)
Test: Fluorescence-based high-throughput DNA polymerase assay (molecular beacon), primary screen and dose-response
Type: biochemical
Method in brief: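 Single-point screening used 10 µM compound with 20 nM polymerase, 20 nM hairpin substrate and 6 µM dNTPs for 90 min at 25 °C. Confirmatory titrations (2.5–80 µM) followed fluorescence at three times, and IC50 was derived from a fit including a cooperativity term n.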

P. falciparum apicoplast DNA polymerase (Pf-apPOL), sequence (Q8ILY1 entry or part of it): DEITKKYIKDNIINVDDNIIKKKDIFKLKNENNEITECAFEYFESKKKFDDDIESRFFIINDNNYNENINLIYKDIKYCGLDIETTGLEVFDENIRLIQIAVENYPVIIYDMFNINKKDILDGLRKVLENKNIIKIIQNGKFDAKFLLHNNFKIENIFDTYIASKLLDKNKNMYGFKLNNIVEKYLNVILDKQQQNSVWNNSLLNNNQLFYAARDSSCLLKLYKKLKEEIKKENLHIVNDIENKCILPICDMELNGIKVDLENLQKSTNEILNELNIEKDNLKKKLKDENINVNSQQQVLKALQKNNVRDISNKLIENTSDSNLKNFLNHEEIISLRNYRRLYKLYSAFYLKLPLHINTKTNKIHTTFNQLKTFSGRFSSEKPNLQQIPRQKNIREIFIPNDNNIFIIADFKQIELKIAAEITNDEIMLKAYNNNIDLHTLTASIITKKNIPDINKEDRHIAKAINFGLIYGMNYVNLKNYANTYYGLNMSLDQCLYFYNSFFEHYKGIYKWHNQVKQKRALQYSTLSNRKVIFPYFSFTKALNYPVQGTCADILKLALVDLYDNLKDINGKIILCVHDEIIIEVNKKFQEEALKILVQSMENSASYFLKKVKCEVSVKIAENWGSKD

SMILES: COc1ccccc1CCC(=O)N1CCc2c(nc3cc(-c4ccccc4)[nH]n3c2=O)C1 [Molecule 7, COc1ccccc1CCC(=O)N1CCc2c(C1)nc1n(c2=O)[nH]c(c1)c1ccccc1]
- DNA Pol ('DNA Pol'; screening value, unit not given; 90 min, 10 µM): 40
- % inhibition Apo pol 10' (DRC-1; 10'; concentration 2.5): 2.75%
- % inhibition Apo pol 10' (DRC-1; 10'; concentration 5): 18%
- % inhibition Apo pol 10' (DRC-1; 10'; concentration 10): 67%
- % inhibition Apo pol 10' (DRC-1; 10'; concentration 20): 82%
- % inhibition Apo pol 10' (DRC-1; 10'; concentration 40): 78%
- % inhibition Apo pol 10' (DRC-1; 10'; concentration 80): 59%
- % inhibition Apol 90' (DRC-1; 90'; concentration 2.5): 0.0541%
- % inhibition Apol 90' (DRC-1; 90'; concentration 5): 9%
- % inhibition Apol 90' (DRC-1; 90'; concentration 10): 54%
- % inhibition Apol 90' (DRC-1; 90'; concentration 20): 73%
- % inhibition Apol 90' (DRC-1; 90'; concentration 40): 72%
- % inhibition Apol 90' (DRC-1; 90'; concentration 80): 63%
- % inhibition apPOL 180' (DRC-1; 180'; concentration 2.5): -3.58%
- % inhibition apPOL 180' (DRC-1; 180'; concentration 5): 1.16%
- % inhibition apPOL 180' (DRC-1; 180'; concentration 10): 38%
- % inhibition apPOL 180' (DRC-1; 180'; concentration 20): 59%
- % inhibition apPOL 180' (DRC-1; 180'; concentration 40): 58%
- % inhibition apPOL 180' (DRC-1; 180'; concentration 80): 49%
- % inhibition Apo pol 5' (DRC-2, 5', concentration 2.5): 6%
- % inhibition Apo pol 5' (DRC-2, 5', concentration 5): 26%
- % inhibition Apo pol 5' (DRC-2, 5', concentration 10): 48%
- % inhibition Apo pol 5' (DRC-2, 5', concentration 20): 51%
- % inhibition Apo pol 5' (DRC-2, 5', concentration 40): 44%
- % inhibition Apo pol 5' (DRC-2, 5', concentration 80): 21%
- % inhibition Apol 40' (DRC-2, 40', concentration 2.5): 5.58%
- % inhibition Apol 40' (DRC-2, 40', concentration 5): 30%
- % inhibition Apol 40' (DRC-2, 40', concentration 10): 57%
- % inhibition Apol 40' (DRC-2, 40', concentration 20): 64%
- % inhibition Apol 40' (DRC-2, 40', concentration 40): 61%
- % inhibition Apol 40' (DRC-2, 40', concentration 80): 44%
- % inhibition ApPOL 90' (DRC-2, 90', concentration 2.5): 5%
- % inhibition ApPOL 90' (DRC-2, 90', concentration 5): 28%
- % inhibition ApPOL 90' (DRC-2, 90', concentration 10): 57%
- % inhibition ApPOL 90' (DRC-2, 90', concentration 20): 65%
- % inhibition ApPOL 90' (DRC-2, 90', concentration 40): 62%
- % inhibition ApPOL 90' (DRC-2, 90', concentration 80): 47%
- % inhibition apPOL 180' (DRC-2, 180', concentration 2.5): 3%
- % inhibition apPOL 180' (DRC-2, 180', concentration 5): 21%
- % inhibition apPOL 180' (DRC-2, 180', concentration 10): 48%
- % inhibition apPOL 180' (DRC-2, 180', concentration 20): 59%
- % inhibition apPOL 180' (DRC-2, 180', concentration 40): 55%
- % inhibition apPOL 180' (DRC-2, 180', concentration 80): 41%
- % inhibition apPOL 180' (conc 5 (unit not given); 180'; DRC-2): 21%
- % inhibition Apo pol 5' (conc 10 (unit not given); 5'; DRC-2): 48%
- % inhibition Apol 40' (conc 10 (unit not given); 40'; DRC-2): 57%
- % inhibition ApPOL 90' (conc 10 (unit not given); 90'; DRC-2): 57%
- % inhibition apPOL 180' (conc 10 (unit not given); 180'; DRC-2): 48%
- % inhibition apPOL 180' (conc 20 (unit not given); 180'; DRC-2): 59%
- % inhibition apPOL 180' (conc 20 (unit not given); 180'; first dose-response set): 59%
- % inhibition Apo pol 5' (conc 40 (unit not given); 5'; DRC-2): 44%
- % inhibition Apo pol 5' (conc 80 (unit not given); 5'; DRC-2): 21%
- % inhibition Apo pol 10' (conc 80 (unit not given); 10'; first dose-response set): 59%
- % inhibition Apol 40' (conc 80 (unit not given); 40'; DRC-2): 44%
- DNA Pol (primary screen hit value, DNA Pol (186 hits); 90 min, 10 µM): 40

SMILES: COc1ccc(NC(=O)Cn2ccc3c(=O)[nH]ccc32)cc1Cl [Molecule 10]
- IC50 (supplemental file 2, sheet IC50 nontoxic compounds; Pf-apPOL): 6.2 µM

SMILES: COc1ccc(C)cc1NC(=O)Cn1ccc2c(=O)[nH]ccc21 [Molecule 15, COc1ccc(cc1NC(=O)Cn1ccc2c1cc[nH]c2=O)C]
- % inhibition Apo pol 10' (DRC-1; 10'; concentration 2.5): 1.7584%
- % inhibition Apo pol 10' (DRC-1; 10'; concentration 5): 31.9729%
- % inhibition Apo pol 10' (DRC-1; 10'; concentration 10): 59.9251%
- % inhibition Apo pol 10' (DRC-1; 10'; concentration 20): 81.9832%
- % inhibition Apo pol 10' (DRC-1; 10'; concentration 40): 82.3162%
- % inhibition Apo pol 10' (DRC-1; 10'; concentration 80): 74.4719%
- % inhibition Apol 90' (DRC-1; 90'; concentration 2.5): -2.786%
- % inhibition Apol 90' (DRC-1; 90'; concentration 5): 18.8368%
- % inhibition Apol 90' (DRC-1; 90'; concentration 10): 46.9508%
- % inhibition Apol 90' (DRC-1; 90'; concentration 20): 77.5716%
- % inhibition Apol 90' (DRC-1; 90'; concentration 40): 84.7552%
- % inhibition Apol 90' (DRC-1; 90'; concentration 80): 84.8173%
- % inhibition apPOL 180' (DRC-1; 180'; concentration 2.5): -5.413%
- % inhibition apPOL 180' (DRC-1; 180'; concentration 5): 6.847%
- % inhibition apPOL 180' (DRC-1; 180'; concentration 10): 30.4146%
- % inhibition apPOL 180' (DRC-1; 180'; concentration 20): 67.1672%
- % inhibition apPOL 180' (DRC-1; 180'; concentration 40): 81.3984%
- % inhibition apPOL 180' (DRC-1; 180'; concentration 80): 86.595%
- % inhibition Apo pol 5' (DRC-2; 5'; concentration 2.5): 1.82%
- % inhibition Apo pol 5' (DRC-2; 5'; concentration 5): 24%
- % inhibition Apo pol 5' (DRC-2; 5'; concentration 10): 47%
- % inhibition Apo pol 5' (DRC-2; 5'; concentration 20): 44%
- % inhibition Apo pol 5' (DRC-2; 5'; concentration 40): 34%
- % inhibition Apo pol 5' (DRC-2; 5'; concentration 80): 8%
- % inhibition Apol 40' (DRC-2; 40'; concentration 2.5): 0.779%
- % inhibition Apol 40' (DRC-2; 40'; concentration 5): 28%
- % inhibition Apol 40' (DRC-2; 40'; concentration 10): 63%
- % inhibition Apol 40' (DRC-2; 40'; concentration 20): 65%
- % inhibition Apol 40' (DRC-2; 40'; concentration 40): 60%
- % inhibition Apol 40' (DRC-2; 40'; concentration 80): 46%
- % inhibition ApPOL 90' (DRC-2; 90'; concentration 2.5): -0.827%
- % inhibition ApPOL 90' (DRC-2; 90'; concentration 5): 24%
- % inhibition ApPOL 90' (DRC-2; 90'; concentration 10): 64%
- % inhibition ApPOL 90' (DRC-2; 90'; concentration 20): 67%
- % inhibition ApPOL 90' (DRC-2; 90'; concentration 40): 66%
- % inhibition ApPOL 90' (DRC-2; 90'; concentration 80): 55%
- % inhibition apPOL 180' (DRC-2; 180'; concentration 2.5): -8%
- % inhibition apPOL 180' (DRC-2; 180'; concentration 5): 12%
- % inhibition apPOL 180' (DRC-2; 180'; concentration 10): 58%
- % inhibition apPOL 180' (DRC-2; 180'; concentration 20): 66%
- % inhibition apPOL 180' (DRC-2; 180'; concentration 40): 72%
- % inhibition apPOL 180' (DRC-2; 180'; concentration 80): 64%
- % inhibition Apo pol 5' (conc. 5; 5'; DRC-2): 24%
- % inhibition ApPOL 90' (conc. 5; 90'; DRC-2): 24%
- % inhibition ApPOL 90' (conc. 10; 90'; DRC-2): 64%
- % inhibition apPOL 180' (conc. 20; 180'; DRC-2): 66%
- % inhibition ApPOL 90' (conc. 40; 90'; DRC-2): 66%
- % inhibition apPOL 180' (conc. 80; 180'; DRC-2): 64%
- DNA Pol (primary screen value by plate and well; 90 min, 10 µM): 73
- DNA Pol (primary screen value of the 186 hits; unit not given; 90 min, 10 µM): 73

SMILES: COc1ccc2c(c1)C(c1ccccc1OC)CC(=O)O2 (stereo not shown) [Molecule 38, COc1ccc2c(c1)C(CC(=O)O2)c1ccccc1OC]
- DNA Pol ('DNA Pol' of the 186 hits list (primary screen result); unit not given; 90 min, 10 µM): 27
- % inhibition Apo pol 10' (DRC-1; 10'; concentration 2.5): 10.6274%
- % inhibition Apo pol 10' (DRC-1; 10'; concentration 5): 16.1295%
- % inhibition Apo pol 10' (DRC-1; 10'; concentration 10): 45.2437%
- % inhibition Apo pol 10' (DRC-1; 10'; concentration 20): 76.7316%
- % inhibition Apo pol 10' (DRC-1; 10'; concentration 40): 94.6893%
- % inhibition Apo pol 10' (DRC-1; 10'; concentration 80): 97.2345%
- % inhibition Apol 90' (DRC-1; 90'; concentration 2.5): -7.663%
- % inhibition Apol 90' (DRC-1; 90'; concentration 5): -2.39%
- % inhibition Apol 90' (DRC-1; 90'; concentration 10): 21.9297%
- % inhibition Apol 90' (DRC-1; 90'; concentration 20): 56.4964%
- % inhibition Apol 90' (DRC-1; 90'; concentration 40): 89.2946%
- % inhibition Apol 90' (DRC-1; 90'; concentration 80): 96.5262%
- % inhibition apPOL 180' (DRC-1; 180'; concentration 2.5): -11.4597%
- % inhibition apPOL 180' (DRC-1; 180'; concentration 5): -6.316%
- % inhibition apPOL 180' (DRC-1; 180'; concentration 10): 13.8407%
- % inhibition apPOL 180' (DRC-1; 180'; concentration 20): 46.2939%
- % inhibition apPOL 180' (DRC-1; 180'; concentration 40): 87.0263%
- % inhibition apPOL 180' (DRC-1; 180'; concentration 80): 96.2979%
- % inhibition Apol 40' (DRC-2, 40', concentration 10 (unit not given)): 27%
- % inhibition ApPOL 90' (DRC-2, 90', concentration 5 (unit not given)): 7%
- % inhibition apPOL 180' (DRC-2, 180', concentration 5 (unit not given)): 7%
- % inhibition Apo pol 5' (DRC-2; 5'; concentration 2.5): 6.5%
- % inhibition Apo pol 5' (DRC-2; 5'; concentration 5): 27%
- % inhibition Apo pol 5' (DRC-2; 5'; concentration 5 (unit not given)): 27%
- % inhibition Apo pol 5' (DRC-2; 5'; concentration 10): 41%
- % inhibition Apo pol 5' (DRC-2; 5'; concentration 20): 55%
- % inhibition Apo pol 5' (DRC-2; 5'; concentration 40): 64%
- % inhibition Apo pol 5' (DRC-2; 5'; concentration 80): 69%
- % inhibition Apol 40' (DRC-2; 40'; concentration 2.5): -7%
- % inhibition Apol 40' (DRC-2; 40'; concentration 5): 10%
- % inhibition Apol 40' (DRC-2; 40'; concentration 10): 27%
- % inhibition Apol 40' (DRC-2; 40'; concentration 20): 54%
- % inhibition Apol 40' (DRC-2; 40'; concentration 40): 72%
- % inhibition Apol 40' (DRC-2; 40'; concentration 80): 81%
- % inhibition ApPOL 90' (DRC-2; 90'; concentration 2.5): -8%
- % inhibition ApPOL 90' (DRC-2; 90'; concentration 5): 7%
- % inhibition ApPOL 90' (DRC-2; 90'; concentration 10): 23%
- % inhibition ApPOL 90' (DRC-2; 90'; concentration 20): 53%
- % inhibition ApPOL 90' (DRC-2; 90'; concentration 40): 74%
- % inhibition ApPOL 90' (DRC-2; 90'; concentration 80): 84%
- % inhibition apPOL 180' (DRC-2; 180'; concentration 2.5): -3.79%
- % inhibition apPOL 180' (DRC-2; 180'; concentration 5): 7%
- % inhibition apPOL 180' (DRC-2; 180'; concentration 10): 20%
- % inhibition apPOL 180' (DRC-2; 180'; concentration 20): 50%
- % inhibition apPOL 180' (DRC-2; 180'; concentration 40): 75%
- % inhibition apPOL 180' (DRC-2; 180'; concentration 80): 86%
- DNA Pol (primary screen value of the library well; unit not given; 90 min, 10 µM): 27
